Columns and labels:
Assay in all cases: biochemical
[1] = molecular target: EEF2K (Homo sapiens, UniProt O00418)
How it was run: (§1)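 Human kinases phosphorylating kinase-specific synthetic peptides, assayed by mobility shift (MSA) or IMAP fluorescence polarization, in 20 mM HEPES pH 7.5, 0.01% Triton X-100, 2 mM DTT with substrate/ATP-metal. Reactions ran 1 or 5 h at room temperature; activity = P/(P + S) from product and substrate peak heights.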

[2] = molecular target: T1, HGK (Homo sapiens, UniProt O95819)
T1 construct: gene MAP4K4
How it was run: as §1

[3] = molecular target: T2, YES(T348I) (Homo sapiens, UniProt P07947, T348I)
T2 construct: gene YES1
How it was run: as §1

[4] = molecular target: DYRK3 (Homo sapiens, UniProt O43781)
How it was run: as §1

[5] = molecular target: T3, MST2 (Homo sapiens, UniProt Q13188)
T3 construct: gene STK3
How it was run: as §1

[6] = molecular target: MARK1 (Homo sapiens, UniProt Q9P0L2)
How it was run: as §1

[7] = molecular target: MAP4K2 (Homo sapiens, UniProt Q12851)
How it was run: as §1

[8] = molecular target: PLK1 (Homo sapiens, UniProt P53350)
How it was run: as §1

[9] = molecular target: T4, PKD3 (Homo sapiens, UniProt O94806)
T4 construct: gene PRKD3
How it was run: as §1

[10] = molecular target: T5, NDR2 (Homo sapiens, UniProt Q9Y2H1)
T5 construct: gene STK38L
How it was run: as §1

[11] = molecular target: T6, IKKε (Homo sapiens, UniProt Q14164)
T6 construct: gene IKBKE
How it was run: as §1

[12] = molecular target: PAK6 (Homo sapiens, UniProt Q9NQU5)
How it was run: as §1

[13] = molecular target: MARK4 (Homo sapiens, UniProt Q96L34)
How it was run: as §1

[14] = molecular target: INSR (Homo sapiens, UniProt P06213)
How it was run: as §1

[15] = molecular target: FGFR1(V561M) (Homo sapiens, UniProt P11362, V561M)
How it was run: as §1

[16] = molecular target: EPHA6 (Homo sapiens, UniProt Q9UF33)
How it was run: as §1

[17] = molecular target: RET(M918T) (Homo sapiens, UniProt P07949, M918T)
How it was run: as §1

[18] = molecular target: KIT(V654A) (Homo sapiens, UniProt P10721, V654A)
How it was run: as §1

[19] = molecular target: T7, CaMK1δ (Homo sapiens, UniProt Q8IU85)
T7 construct: gene CAMK1D
How it was run: as §1

[20] = molecular target: ALK(F1174L) (Homo sapiens, UniProt Q9UM73, F1174L)
How it was run: as §1

[21] = molecular target: T8, RSK3 (Homo sapiens, UniProt Q15349)
T8 construct: gene RPS6KA2
How it was run: as §1

[22] = molecular target: ALK(R1275Q) (Homo sapiens, UniProt Q9UM73, R1275Q)
How it was run: as §1

[23] = molecular target: FER (Homo sapiens, UniProt P16591)
How it was run: as §1

[24] = molecular target: WNK2 (Homo sapiens, UniProt Q9Y3S1)
How it was run: as §1

[25] = molecular target: NEK4 (Homo sapiens, UniProt P51957)
How it was run: as §1

[26] = molecular target: T9, PKACγ (Homo sapiens, UniProt P22612)
T9 construct: gene PRKACG
How it was run: as §1

[27] = molecular target: KIT (Homo sapiens, UniProt P10721)
How it was run: as §1

[28] = molecular target: T10, PKCθ (Homo sapiens, UniProt Q04759)
T10 construct: gene PRKCQ
How it was run: as §1

[29] = molecular target: T11, AurA/TPX2 (Homo sapiens, UniProt O14965)
T11 construct: gene AURKA
How it was run: as §1

[30] = molecular target: T12, AMPKα1/β1/γ1 (Homo sapiens, UniProt Q13131)
T12 construct: gene PRKAA1
How it was run: as §1

MARK4, sequence (Q96L34 whole entry): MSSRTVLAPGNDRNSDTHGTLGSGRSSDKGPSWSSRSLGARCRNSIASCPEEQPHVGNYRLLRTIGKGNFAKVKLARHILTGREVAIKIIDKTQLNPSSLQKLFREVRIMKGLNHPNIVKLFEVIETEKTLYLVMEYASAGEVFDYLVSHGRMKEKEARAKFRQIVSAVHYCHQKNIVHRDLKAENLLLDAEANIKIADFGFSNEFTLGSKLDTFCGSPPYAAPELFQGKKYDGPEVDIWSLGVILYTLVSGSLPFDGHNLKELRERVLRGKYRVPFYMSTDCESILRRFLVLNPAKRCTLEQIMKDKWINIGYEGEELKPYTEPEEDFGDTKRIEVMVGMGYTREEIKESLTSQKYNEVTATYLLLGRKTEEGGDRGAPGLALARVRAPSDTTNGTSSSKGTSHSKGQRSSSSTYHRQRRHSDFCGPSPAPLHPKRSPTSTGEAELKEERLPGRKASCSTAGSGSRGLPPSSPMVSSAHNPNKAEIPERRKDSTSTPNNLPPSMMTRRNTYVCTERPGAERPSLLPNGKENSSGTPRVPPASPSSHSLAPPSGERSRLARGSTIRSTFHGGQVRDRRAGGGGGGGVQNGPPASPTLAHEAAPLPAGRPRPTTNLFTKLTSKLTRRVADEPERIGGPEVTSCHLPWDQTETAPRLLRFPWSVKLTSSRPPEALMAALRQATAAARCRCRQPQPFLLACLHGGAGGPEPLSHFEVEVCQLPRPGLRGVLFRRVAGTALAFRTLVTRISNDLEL
RET(M918T), sequence (P07949 whole entry M918T): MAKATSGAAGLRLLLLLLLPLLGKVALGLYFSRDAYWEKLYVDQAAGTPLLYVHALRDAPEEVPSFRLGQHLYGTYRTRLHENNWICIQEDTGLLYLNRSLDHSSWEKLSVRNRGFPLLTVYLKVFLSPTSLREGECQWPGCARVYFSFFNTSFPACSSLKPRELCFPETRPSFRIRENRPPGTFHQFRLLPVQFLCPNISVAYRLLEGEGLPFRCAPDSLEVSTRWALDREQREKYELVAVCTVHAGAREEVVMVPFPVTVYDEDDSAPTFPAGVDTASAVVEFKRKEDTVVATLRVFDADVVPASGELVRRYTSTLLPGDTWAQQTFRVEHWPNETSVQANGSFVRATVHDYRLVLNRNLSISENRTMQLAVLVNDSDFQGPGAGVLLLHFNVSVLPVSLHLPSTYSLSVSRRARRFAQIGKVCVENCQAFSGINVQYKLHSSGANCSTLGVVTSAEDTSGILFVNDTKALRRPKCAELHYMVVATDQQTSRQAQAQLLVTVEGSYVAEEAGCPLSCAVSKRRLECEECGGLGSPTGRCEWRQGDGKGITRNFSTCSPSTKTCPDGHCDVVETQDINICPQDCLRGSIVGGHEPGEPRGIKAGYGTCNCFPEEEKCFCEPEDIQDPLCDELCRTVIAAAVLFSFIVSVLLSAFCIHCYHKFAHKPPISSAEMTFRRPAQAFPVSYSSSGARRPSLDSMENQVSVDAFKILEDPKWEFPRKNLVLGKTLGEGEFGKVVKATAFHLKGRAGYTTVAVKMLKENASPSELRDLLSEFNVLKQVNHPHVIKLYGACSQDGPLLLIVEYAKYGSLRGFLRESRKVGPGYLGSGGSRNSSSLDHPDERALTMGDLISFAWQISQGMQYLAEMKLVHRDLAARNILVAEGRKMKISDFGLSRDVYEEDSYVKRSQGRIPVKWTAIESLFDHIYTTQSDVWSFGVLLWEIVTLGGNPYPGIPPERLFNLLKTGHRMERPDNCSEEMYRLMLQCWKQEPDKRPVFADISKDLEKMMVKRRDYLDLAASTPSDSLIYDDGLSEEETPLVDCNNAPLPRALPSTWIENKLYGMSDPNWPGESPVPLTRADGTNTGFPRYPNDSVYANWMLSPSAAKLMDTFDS
T3 sequence (Q13188 whole entry): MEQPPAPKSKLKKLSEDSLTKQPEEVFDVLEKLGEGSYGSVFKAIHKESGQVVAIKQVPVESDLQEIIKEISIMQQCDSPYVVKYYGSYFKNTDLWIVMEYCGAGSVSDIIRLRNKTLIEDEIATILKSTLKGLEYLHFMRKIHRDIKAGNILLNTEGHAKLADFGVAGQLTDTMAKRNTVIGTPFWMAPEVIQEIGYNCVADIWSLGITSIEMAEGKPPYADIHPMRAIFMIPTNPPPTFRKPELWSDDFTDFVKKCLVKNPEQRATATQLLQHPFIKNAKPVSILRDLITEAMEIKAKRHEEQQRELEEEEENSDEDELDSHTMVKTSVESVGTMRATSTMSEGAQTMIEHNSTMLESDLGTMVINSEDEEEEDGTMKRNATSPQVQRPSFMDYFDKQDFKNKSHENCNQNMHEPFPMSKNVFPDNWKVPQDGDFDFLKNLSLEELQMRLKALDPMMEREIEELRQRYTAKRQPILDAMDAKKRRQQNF
DYRK3, sequence (O43781 whole entry): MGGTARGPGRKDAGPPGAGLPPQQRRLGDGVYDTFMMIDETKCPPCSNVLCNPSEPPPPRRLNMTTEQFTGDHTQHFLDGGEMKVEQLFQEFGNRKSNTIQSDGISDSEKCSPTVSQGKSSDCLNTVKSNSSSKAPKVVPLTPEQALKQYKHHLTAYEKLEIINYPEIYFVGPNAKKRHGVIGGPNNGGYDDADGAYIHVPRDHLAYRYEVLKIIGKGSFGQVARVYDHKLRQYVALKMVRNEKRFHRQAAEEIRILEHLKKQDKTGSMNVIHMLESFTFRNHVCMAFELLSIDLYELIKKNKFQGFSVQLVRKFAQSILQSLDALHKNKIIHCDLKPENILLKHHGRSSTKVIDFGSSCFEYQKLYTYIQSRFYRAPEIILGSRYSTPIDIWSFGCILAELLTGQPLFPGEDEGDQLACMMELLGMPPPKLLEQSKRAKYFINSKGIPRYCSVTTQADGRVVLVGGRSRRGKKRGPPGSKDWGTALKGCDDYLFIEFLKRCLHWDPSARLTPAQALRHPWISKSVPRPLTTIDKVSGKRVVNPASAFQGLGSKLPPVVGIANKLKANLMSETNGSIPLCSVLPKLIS
FGFR1(V561M), sequence (P11362 whole entry V561M): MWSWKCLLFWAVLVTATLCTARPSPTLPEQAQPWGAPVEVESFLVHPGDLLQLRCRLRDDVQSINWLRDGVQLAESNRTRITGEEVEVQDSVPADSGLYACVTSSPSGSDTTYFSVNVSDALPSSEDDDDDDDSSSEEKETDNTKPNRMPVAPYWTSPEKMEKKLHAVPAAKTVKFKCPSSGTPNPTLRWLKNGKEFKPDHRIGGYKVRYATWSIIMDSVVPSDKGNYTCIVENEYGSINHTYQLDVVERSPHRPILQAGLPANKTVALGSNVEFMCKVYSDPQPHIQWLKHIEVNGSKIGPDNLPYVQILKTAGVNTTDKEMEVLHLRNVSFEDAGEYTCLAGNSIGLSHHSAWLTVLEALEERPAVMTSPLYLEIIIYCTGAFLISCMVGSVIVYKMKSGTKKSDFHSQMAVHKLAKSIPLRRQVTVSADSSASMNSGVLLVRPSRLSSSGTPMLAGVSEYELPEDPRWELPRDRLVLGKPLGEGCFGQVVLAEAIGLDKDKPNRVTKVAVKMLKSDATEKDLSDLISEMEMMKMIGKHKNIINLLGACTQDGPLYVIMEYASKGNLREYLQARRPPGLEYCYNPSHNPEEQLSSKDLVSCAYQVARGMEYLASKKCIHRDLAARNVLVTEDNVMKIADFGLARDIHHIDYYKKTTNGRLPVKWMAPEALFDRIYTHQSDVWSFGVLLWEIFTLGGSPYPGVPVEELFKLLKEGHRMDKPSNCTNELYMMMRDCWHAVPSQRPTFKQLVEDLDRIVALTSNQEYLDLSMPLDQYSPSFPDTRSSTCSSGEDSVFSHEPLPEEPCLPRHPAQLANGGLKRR
T10 sequence (Q04759 whole entry): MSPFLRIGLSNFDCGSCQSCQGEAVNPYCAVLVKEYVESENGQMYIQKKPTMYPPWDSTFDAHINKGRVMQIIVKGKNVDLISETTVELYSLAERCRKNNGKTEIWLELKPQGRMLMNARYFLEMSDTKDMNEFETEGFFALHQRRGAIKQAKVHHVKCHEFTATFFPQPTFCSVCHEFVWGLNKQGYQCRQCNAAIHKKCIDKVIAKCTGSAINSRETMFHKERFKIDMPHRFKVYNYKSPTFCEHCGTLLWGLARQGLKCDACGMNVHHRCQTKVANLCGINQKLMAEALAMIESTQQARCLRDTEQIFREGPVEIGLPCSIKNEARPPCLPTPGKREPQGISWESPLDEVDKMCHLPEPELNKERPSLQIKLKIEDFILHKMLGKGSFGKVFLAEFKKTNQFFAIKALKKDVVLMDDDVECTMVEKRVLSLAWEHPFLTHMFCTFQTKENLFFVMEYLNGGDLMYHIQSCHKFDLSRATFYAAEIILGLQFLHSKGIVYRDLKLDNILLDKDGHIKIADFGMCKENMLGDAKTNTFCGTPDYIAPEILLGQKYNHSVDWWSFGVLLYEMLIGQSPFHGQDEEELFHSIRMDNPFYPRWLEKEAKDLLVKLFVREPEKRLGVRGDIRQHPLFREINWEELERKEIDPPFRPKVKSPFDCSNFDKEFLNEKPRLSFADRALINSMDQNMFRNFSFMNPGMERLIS
T9 sequence (P22612 whole entry): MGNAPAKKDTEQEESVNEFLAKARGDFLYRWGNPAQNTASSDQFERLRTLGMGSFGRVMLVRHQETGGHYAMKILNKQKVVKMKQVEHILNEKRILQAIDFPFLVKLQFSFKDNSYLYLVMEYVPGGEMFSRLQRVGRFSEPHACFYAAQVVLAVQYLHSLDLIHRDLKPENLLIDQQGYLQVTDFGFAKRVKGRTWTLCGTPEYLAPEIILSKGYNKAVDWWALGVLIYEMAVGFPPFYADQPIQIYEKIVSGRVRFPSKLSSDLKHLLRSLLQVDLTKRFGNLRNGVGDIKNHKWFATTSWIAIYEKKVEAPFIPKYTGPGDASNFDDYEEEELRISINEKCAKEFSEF

Compound `c1cc(-c2ccc3[nH]ncc3c2)ccn1` [TG693, 5-(4-pyridinyl)-1H-indazole] has an inhibition at 1 µM [1] of -15.2%, an inhibition at 1 µM [2] of 66.5% and an inhibition at 1 µM [3] of -1.4%. The inhibition at 1 µM [4] was 64%, the inhibition at 1 µM [5] was 0.5% and the inhibition at 1 µM [6] was 13.3%. For the same compound, the inhibition at 1 µM [7] was 1.9%, the inhibition at 1 µM [8] was -8.5% and the inhibition at 1 µM [9] was -9%. For the same compound, the inhibition at 1 µM [10] was 7.5%, the inhibition at 1 µM [11] was 6.1% and the inhibition at 1 µM [12] was -4.3%. The inhibition at 1 µM [13] was 25.1%, the inhibition at 1 µM [14] was -5.9% and the inhibition at 1 µM [15] was -11.6%. For the same compound, the inhibition at 1 µM [16] was -3.5%, the inhibition at 1 µM [17] was -2.6% and the inhibition at 1 µM [18] was -1.5%. It also gave an inhibition at 1 µM [19] of 7%, an inhibition at 1 µM [20] of -6.9% and an inhibition at 1 µM [21] of -4.8%. For the same compound, the inhibition at 1 µM [22] was -7.6%, the inhibition at 1 µM [23] was 4.4% and the inhibition at 1 µM [24] was 4%. The inhibition at 1 µM [25] was -4.2%, the inhibition at 1 µM [26] was 1.5% and the inhibition at 1 µM [27] was -0.9%. For the same compound, the inhibition at 1 µM [28] was -12.6%, the inhibition at 1 µM [29] was 8.5% and the inhibition at 1 µM [30] was -6.5%.
